Assay results from publication PMC11550483 (2024).
Where a SMILES comes first, the peptide text is derived from it.

Each compound was assayed against SARS2 M^pro (Severe acute respiratory syndrome coronavirus 2, UniProt P0DTD1, P3395H).
Assay type: biochemical, SARS-CoV-2

Row | SMILES | % inhibition (20 µM) biochemical [%]
1 | Cc1ccc(C(NC(=O)CCl)c2cccs2)cc1 (stereo not drawn) [MWAC-0001859, Cc1ccc(cc1)C(NC(=O)CCl)c2cccs2] | 60
2 | COc1ccc2c(=O)cc(-c3ccc4c(c3)OCCO4)oc2c1 [MWAC-0001860, COc1ccc2C(=O)C=C(Oc2c1)c3ccc4OCCOc4c3] | 100
3 | O=C(CCl)NC(c1ccccc1)c1ccc(Cl)cc1 (stereo not drawn) [MWAC-0001861, ClCC(=O)NC(c1ccccc1)c2ccc(Cl)cc2] | 67
4 | O=C(CCl)NC(NC(=O)CCl)c1ccccc1F [MWAC-0001862, Fc1ccccc1C(NC(=O)CCl)NC(=O)CCl] | 40
5 | O=C(CCl)NCCOc1ccccc1 [MWAC-0001864, ClCC(=O)NCCOc1ccccc1] | 58
6 | COc1cccc(Nc2ccc3ccccc3c2)c1 [MWAC-0001865, COc1cccc(Nc2ccc3ccccc3c2)c1] | 0
7 | O=C(CC(SCc1ccco1)c1ccc(Cl)cc1)c1cccs1 (stereo not drawn) [MWAC-0001874, Clc1ccc(cc1)C(CC(=O)c2cccs2)SCc3occc3] | 0
8 | Nc1c(C(=O)c2ccccc2)sc2nc(C3CC3)cc(-c3ccco3)c12 [MWAC-0001875, Nc1c(sc2nc(cc(c3occc3)c12)C4CC4)C(=O)c5ccccc5] | 0
9 | O=C(Nc1nccs1)c1ccc(F)cc1[N+](=O)[O-] [MWAC-0001876, [O-][N+](=O)c1cc(F)ccc1C(=O)Nc2nccs2] | 0
10 | COc1ccc(-c2cc(=O)c3ccccc3s2)cc1 [MWAC-0001878, COc1ccc(cc1)C2=CC(=O)c3ccccc3S2] | 0
11 | S=C(c1ccc(-c2cccc(Cl)c2)o1)N1CCCCC1 [MWAC-0001879, Clc1cccc(c1)c2oc(cc2)C(=S)N3CCCCC3] | 0
12 | CCc1ccc(C(=O)Cn2c(C)nc([N+](=O)[O-])c2Br)cc1 [MWAC-0001880, CCc1ccc(cc1)C(=O)Cn2c(C)nc(c2Br)[N+](=O)[O-]] | 0
13 | COc1ccc(-c2nnc(SCc3ccc4c(c3)OCO4)n2-c2ccccc2)cc1 [MWAC-0001881, COc1ccc(cc1)c2nnc(SCc3ccc4OCOc4c3)n2c5ccccc5] | 0
14 | Cc1ccc(Cc2cnc(NC(=O)c3cccs3)s2)cc1 [MWAC-0001882, Cc1ccc(Cc2cnc(NC(=O)c3cccs3)s2)cc1] | 0
15 | CSc1cccc(NC(=O)c2cnn3ccccc23)c1 [MWAC-0001883, CSc1cccc(NC(=O)c2cnn3ccccc23)c1] | 0
16 | COC(=O)c1ccc(C(=O)Nc2ccccc2N)cc1 [MWAC-0001884, COC(=O)c1ccc(cc1)C(=O)Nc2ccccc2N] | 0
17 | COc1ccccc1Nc1nc(-c2ccccn2)cs1 [MWAC-0001885, COc1ccccc1Nc2nc(cs2)c3ccccn3] | 0
18 | Cc1noc(N)c1C(=O)Nc1ccc(C(C)(C)C)cc1 [MWAC-0001886, Cc1noc(N)c1C(=O)Nc2ccc(cc2)C(C)(C)C] | 0
19 | CCC(=O)OCC(=O)NCc1ccc2c(c1)OCO2 [MWAC-0001887, CCC(=O)OCC(=O)NCc1ccc2OCOc2c1] | 0
20 | CC(C)c1cc(NC(=O)CCl)cc(C(C)C)c1O [MWAC-0001888, CC(C)c1cc(NC(=O)CCl)cc(C(C)C)c1O] | 80
21 | CSCCC(C=O)NC(=O)C(CC(C)C)NC(=O)C(CC(C)C)NC(C)=O (stereo not drawn) [MWAC-0001889, CSCCC(NC(=O)C(CC(C)C)NC(=O)C(CC(C)C)NC(=O)C)C=O] (Ac-Leu-Leu-Met-aldehyde; configuration not given here) | 99
